The test has as its target PARP-1 enzyme (Homo sapiens, UniProt P09874). Put plainly: In vitro filtration assay for PARP-1 inhibitory activity. The test is classed as biochemical. The procedure: In Vitro Filtration Assay for PARP-1 Inhibitory Activity
Compounds of the present invention were tested in an in vitro filtration assay assessing PARP-1 activity (triggered in the presence of nicked DNA) by means of its histone poly (ADP-ribosyl)ation activity using [^32P]-NAD as ADP-ribosyl donor. The radioactive ribosylated histones were precipitated by trichloroacetic acid (TCA) in 96-well filterplates and the incorporated [^32P] measured using a scintillation counter
A mixture of histones (stock solution: 5 mg/ml in H2O), NAD^+ (stock solution: 100 mM in H2O), and [^32P]-NAD^+ in incubation buffer (50 mM Tris/HCl, pH 8; 0.2 mM DTT; 4 mM MgCl2) was made. A mixture of the PARP-1 enzyme (5-10 μg/ml) and nicked DNA was also made. The nicked DNA was prepared as described in the in vitro SPA for PARP-1 inhibitory activity. Seventy-five μl of the PARP-1 enzyme/DNA mixture together with 1 μl of compound in DMSO and 25 μl of histones-NAD^+/[^32P]-NAD^+ mixture was added per well of a 96-well filterplate (0.45 μm, supplier Millipore). The final concentrations in the incubation mixture were 2 μg/ml for the histones, 0.1 mM for the NAD^+, […] (0.5 μC) for the [^32P]-NAD^+ and 2 μg/ml for the nicked DNA. Plates were incubated for 15 min. at room temperature and the reaction was terminated by the addition of 10 μl ice cold 100% TCA followed by the addition of 10 μl ice-cold BSA solution (1% in H2O). The protein fraction was allowed to precipitate for 10 min. at 4° C. and plates were vacuum filtered. The plates were subsequently washed with, for each well, 1 ml of 10% ice cold TCA, 1 ml of 5% ice cold TCA and 1 ml of 5% TCA at room temperature. Finally 100 μl of scintillation solution (Microscint 40, Packard) was added to each well and the plates were transferred to a TopCountNXT™ (supplier: Packard) for scintillation counting and values were expressed as counts per minute (cpm). For each experiment, controls (containing PARP-1 enzyme and DMSO without compound), a blank incubation (containing DMSO but no PARP-1 enzyme or compound) and samples (containing PARP-1 enzyme and compound dissolved in DMSO) were run in parallel. All compounds tested were dissolved and eventually further diluted in DMSO. In first instance, compounds were tested at a concentration of 10^−5M. […] In each test, the blank value was subtracted from both the control and the sample values. The control sample represented maximal PARP-1 enzyme activity. For each sample, the amount of cpm was expressed as a percentage of the mean cpm value of the controls. […] Herein the effects of test compounds are expressed as pIC50 (the negative log value of the IC50-value).

Setting [1] is: [32P]-NAD, histones, nicked DNA, read-out: in vitro filter assay PARP-1 pIC50 (converted).

Read-outs that look alike come from different tables or passages of the source.

Sequence of PARP-1 enzyme (P09874 whole entry): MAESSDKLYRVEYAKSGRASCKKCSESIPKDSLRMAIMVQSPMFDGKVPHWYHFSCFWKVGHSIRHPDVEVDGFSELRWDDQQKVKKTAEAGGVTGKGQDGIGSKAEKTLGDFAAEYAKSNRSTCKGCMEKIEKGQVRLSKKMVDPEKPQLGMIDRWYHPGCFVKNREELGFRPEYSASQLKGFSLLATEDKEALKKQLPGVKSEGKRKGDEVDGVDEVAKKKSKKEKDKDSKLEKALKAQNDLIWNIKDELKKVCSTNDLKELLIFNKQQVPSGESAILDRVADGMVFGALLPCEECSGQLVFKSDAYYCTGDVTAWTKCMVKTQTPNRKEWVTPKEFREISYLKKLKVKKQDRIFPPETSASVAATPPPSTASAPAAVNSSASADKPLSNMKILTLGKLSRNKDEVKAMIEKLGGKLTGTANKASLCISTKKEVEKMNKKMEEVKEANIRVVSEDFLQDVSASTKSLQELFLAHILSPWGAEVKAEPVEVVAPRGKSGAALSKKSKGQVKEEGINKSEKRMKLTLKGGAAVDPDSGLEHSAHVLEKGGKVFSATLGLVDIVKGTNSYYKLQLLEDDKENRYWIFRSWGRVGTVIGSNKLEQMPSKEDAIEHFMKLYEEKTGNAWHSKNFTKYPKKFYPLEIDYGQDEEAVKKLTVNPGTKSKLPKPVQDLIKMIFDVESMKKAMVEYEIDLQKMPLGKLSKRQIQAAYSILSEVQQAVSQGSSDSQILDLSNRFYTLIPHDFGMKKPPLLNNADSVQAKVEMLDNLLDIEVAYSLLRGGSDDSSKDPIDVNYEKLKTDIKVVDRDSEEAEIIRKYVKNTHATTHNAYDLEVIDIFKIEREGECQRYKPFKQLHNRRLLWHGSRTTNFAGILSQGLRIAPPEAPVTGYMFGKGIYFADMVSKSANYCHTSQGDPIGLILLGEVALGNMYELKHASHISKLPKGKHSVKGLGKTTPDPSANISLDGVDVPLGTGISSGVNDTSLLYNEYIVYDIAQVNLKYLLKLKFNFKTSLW

Take `O=c1[nH]c(=O)n(C2CCN(CC(O)C3CCc4ccccc4O3)CC2)c2ccccc12` (stereo in doubt) [Compound 9, 1-[1-[(2S)-2-[(2R)-3,4-dihydro-2H-1-benzopyran-2-yl]-2-hydroxyethyl]-4-piperidinyl]-2,4(1H,3H)-quinazolinedione]: the IC50 under setting [1] was 2.18 µM.
In the case of `O=c1[nH]c(=O)n(C2CCNCC2)c2ccccc12` [Compound 1], the IC50 under setting [1] was 0.465 µM.
Still for that read-out and setting: next, `O=C(CCCN1CCC(n2c(=O)[nH]c(=O)c3ccccc32)CC1)c1ccc(F)cc1` [Compound 2]: 1.57 µM.
In turn, `O=c1[nH]c(=O)n(CCCN2CCC(c3c[nH]c4ccccc34)CC2)c2ccccc12` [Compound 3] showed an IC50 of 1.03 µM.
For `O=c1[nH]c(=O)n(C2CCN(CCCn3c(=O)[nH]c4ccccc43)CC2)c2ccccc12` [Compound 5], the IC50 under setting [1] was 1.74 µM.
The same measure, in the same setting: next, `O=c1[nH]c(=O)n(CCN2CCC(O)(c3ccc(Cl)cc3)CC2)c2ccccc12` [Compound 6]: 1.33 µM.
Regarding `O=c1[nH]c(=O)n(CCCN2CCC(O)(c3ccc(Cl)cc3)CC2)c2ccccc12` [Compound 7], under setting [1], the IC50 is 3.24 µM.
For the molecule `O=C(c1ccc(F)cc1)C1CCN(CCn2c(=O)[nH]c(=O)c3ccccc32)CC1` [Compound 10, 1-[2-[4-(4-fluorobenzoyl)-1-piperidinyl]ethyl]-2,4-(1H,3H)-quinazolinedione], under setting [1], the IC50 was 1.8 µM.
Regarding `O=C(c1ccc(F)cc1)C1CCN(CCCn2c(=O)[nH]c(=O)c3ccccc32)CC1` [Compound 11, 1-[3-[4-(4-fluorobenzoyl)-1-piperidinyl]propyl]-2,4-(1H,3H)-quinazolinedione], the IC50 under setting [1] is 2.72 µM.

The values are drawn from US9255080B2, “Quinazolinedione derivatives as PARP inhibitors” (Janssen Pharmaceutica NV, priority 2004, dated 2016).
